Values joined by “and” are separate entries in the source; they are usually repeats but may differ in a detail not shown here. Equal values may be shown once. One block for each molecule: values may come before it.
Tests used:
BV-2 cells = experiment: Inhibition of inflammation in LPS-stimulated BV-2 cells (ELISA of inflammatory factors); format: cell-based; conditions: Mus musculus, 100 ng/mL LPS 4 hours
Procedure: Normal cultured 8th passage BV-2 cells were taken, and inoculated separately in 96-well plates at a certain cell density. The cell culture plates were cultured at 37° C. and 5% CO2 for 24 hours.
After inoculating the plate for 24 hours, the cell culture medium was removed, and then 100 μL of a 4-fold gradient dilution compound starting from 10,000 nM prepared in DMEM+10% FBS, where High control and Low control contained 0.1% DMSO without compound. With 100 μL per well, the cell culture plate was cultured at 37° C. with 5% CO2 for one hour.
The compound-containing cultures were removed. 100 ng/mL of LPS was prepared with DMEM+10% FBS culture medium, and then the compound was diluted in a 4-fold gradient from 10,000 nM with LPS-containing culture medium. In low control, the compound was replaced with 0.1% DMSO. In High control, 0.1% DMSO was prepared with culture medium without LPS. 100 μL per well, and the cell culture plates were cultured at 37° C. with 5% CO2 for 4 hours.
After 4 hours of LPS stimulation, 110 μL of the culture solution was aspirated, and centrifuged at 2000 rpm for 2 minutes. A further 90 μl of supernatant was aspirated and immediately put into −20° C. for freezing.
ELISA kits were used to detect the expression of inflammatory factors such as IL-10, TNFα, etc. The OD450 signal values were measured by microplate reader. The in vitro inhibitory activity of the compounds was calculated according to the following formula: Inhibition rate: Inhibition rate (%)=(signal value of control−signal value of administration)/(high signal value of control−low signal value of control)×100%. And according to the inhibition rate of each concentration, Graphpad Prism 5.0 was used to curve fit the […] signal values at each concentration and calculate the corresponding IC50, which is shown in Table 1.

[1] = Pharmacokinetic properties in rats; format: in vivo, SD rats; conditions: rat
Procedure: Ten male SD rats, weighing 180-220 g (provided by Shanghai Xipuerbikai Laboratory Animal Co., Ltd, Certificate No.: 20130016008116). The rats were fasted for feed for 12-16 hours before the experiment but water was allowed.
Blood samples were collected from the fundus vein of rats before and at 2, 5, 15, 30, 60, 90, 120, 240, 360, 480, 600 and 1440 minutes after administration, respectively.
Blood samples were collected from the fundus vein of rats before and at 5, 15, 30, 60, 90, 120, 240, 360, 480, 600, 1440 minutes after administration respectively.
(§1) Blood samples were centrifuged at 8000 rpm for 5 minutes, and supernatant plasma was taken. To 50 μL of plasma samples was added 300 μL of acetonitrile containing internal standard (propranolol, 25 ng/mL) to precipitate the protein. After vortexing for 10 minutes and centrifuging at 6000 g and 4° C. for 10 minutes, the supernatant was taken and placed in a 96-well plate for determination of drug concentration in plasma by UPLC/MS-MS.

TNF-α = experiment: Lipopolysaccharide (LPS)-induced inflammation model in mice, TNF-α in serum by ELISA; format: in vivo, C57BL/6J mice
Procedure: Male SPF-grade C57BL/6J mice, 6-8 weeks old, provided by Shanghai Ling Chang Biotechnology Co., Ltd. Animals were housed in clean-grade plastic cages (light and dark cycle 12/12 hours, temperature 22±2° C., humidity 50±10%, pellet feed, free drinking water).
1. Mice were weighed and administered according to an administration volume of 10 mL/kg, and oral administration by gavage was given for the first time. Each mouse was administrated at an interval of 3 minutes.
2. One hour after the first administration, LPS 5 mpk was administered intraperitoneally at an administration volume of 10 mL/kg.
3. 4 hours after the first administration, a second oral administration by gavage was given according to the administration volume of 10 mL/kg.
4. 6 hours after LPS intraperitoneal injection, mice were sacrificed, serum and cerebral cortex and hippocampus were sampled. After weighing the wet weight and they were put into liquid nitrogen for quick-freezing and storage.

[2] = Pharmacokinetic properties in mice; format: in vivo, ICR mice
Procedure: Forty-eight male ICR mice, weighing 18-22 g (provided by Shanghai Xipuerbikai Laboratory Animal Co., Ltd, Certificate No.: 20130016008116). The mice were […] for 12-16 hours before the experiment but water was allowed.
Blood samples were collected from the fundus vein of mice before and at 2, 5, 15, 30, 60, 90, 120, 240, 480, 600, and 1440 minutes of the administration, respectively.
Blood samples were collected from the fundus vein of mice before and at 5, 15, 30, 60, 90, 120, 240, 480 and 1440 minutes of administration, respectively.
2-3 time points were taken for each mouse. The mice were sacrificed at 5, 15, 30, 60 and 1440 minutes after the administration (3 mice per time point), and the brains were taken, rinsed with saline, dried on filter paper and weighed.
as §1

p38 kinase = conditions: CN108349964A, Table 7 on page 74; read-out: IC50 grade for the inhibitory activity of p38 kinase; cited from earlier work
[3] = male, ICR, mouse, plasma, po 10 mg/kg

IC50 (BV-2 cells; read-out: BV-2 Rf IC50): 4.26 nM
clearance ([1]; male, SD, plasma, iv 3 mg/kg): 25 mL/min/kg
Vd ([1]; male, SD, plasma, iv 3 mg/kg, read-out: Vss (iv)): 4.5 L/kg
Cmax ([1]; male, SD, plasma, po 6 mg/kg): 476 ng/mL
MRT ([1]; male, SD, plasma, po 6 mg/kg): 4.3 h
Tmax ([1]; male, SD, plasma, po 6 mg/kg): 0.8 h
Thalf (iv) ([1]; iv 3 mg/kg): 5.2 h
BA ([1]; po 6 mg/kg vs iv 3 mg/kg): 41.2%
AUClast (po) ([1]; po 6 mg/kg, 5-1440 minutes): 1644.5 (h)*(ng/mL)
Thalf (iv) ([2]; iv 3 mg/kg): 3.9 h
clearance ([2]; male, ICR, mouse, plasma, iv 3 mg/kg): 18.3 mL/min/kg
Vd ([2]; male, ICR, mouse, plasma, iv 3 mg/kg, read-out: Vss (iv)): 2.3 L/kg
Cmax [2, 3]: 750 ng/mL
MRT [2, 3]: 3.2 h
Tmax [2, 3]: 0.8 h
BA ([2]; po 10 mg/kg vs iv 3 mg/kg): 20.2%
AUClast (po) ([2]; po 10 mg/kg, 5-1440 minutes): 1844 (h)*(ng/mL)
Compound: O=c1ncn2nc(Sc3ccc(F)cc3F)ccc2c1-c1c(Cl)cccc1Cl [VX-745, reference compound]
Emax (BV-2 cells; read-out: BV-2 Max Inh. (%)): 99.7%
levels of TNF-α compared with the mouse inflammation model group (G2) (TNF-α; 8 mpk, P<0.01): significantly reduced
TNF-α conc. (TNF-α; serum, individual animals, 8 mg/kg po bid interval 4 h, 6 hours after LPS 5 mpk ip): 142.0 pg/mL and 151.7 pg/mL and 105.5 pg/mL and 155.5 pg/mL and 55.4 pg/mL and 105.7 pg/mL and 54.3 pg/mL and 71.2 pg/mL and 24.0 pg/mL and 155.2 pg/mL

Compound: O=c1ncn2nc(Sc3ccc(F)cc3)ccc2c1-c1c(Cl)cccc1Cl [compound 12]
IC50 (p38 kinase): 100 to 1000 nM

From US20220048915A1 (SHANGHAI PHARMACEUTICALS HOLDING CO., LTD., priority 2018, published 2022)
